# Results as given in patent US12343429B2, “Method of delivery of DNA or RNA cargo unshielded lipid nanoparticles and compositions thereof” (NanoVation Therapeutics Inc., priority 2023, dated 2025).
# Columns and labels:
# [1] = LNP formulability and stability through dialysis, concentration and storage; assay type: physicochemical; details: for behaviour in dialysis: PEG-less mRNA-LNP 1/structural lipid/cholesterol 27.4/50/22.6, unmodified method; for viability of LNPs, modified method with 25 mM sodium acetate dilution: all ratios of LNP:NaOAc (v:v); for physiochemical properties/stability, modified method with 1× PBS dilution after T-mixing: all ratios of LNP:PBS tested, after dialysis and after concentration to >0.25 mg/mL and overnight storage; for ability to be formulated in PEG-less mRNA-LNPs: unmodified ethanol mixing method, ionizable lipid/DSPC/chol 27.4/50/22.6, N/P 9 (FIG. 6); for behaviour after dialysis and concentration/storage: PEG-less mRNA-LNP, unmodified method, 27.4/50/22.6; for physiochemical characteristics, modified method with 25 mM sodium acetate dilution: 1:2-1:3 volume ratio
# Description: Unless otherwise specified, the LNPs were prepared by dissolving mRNA or plasmid DNA (pDNA) in 25 mM sodium acetate, pH 4.0, while the lipid components at the mole % specified were dissolved in absolute ethanol. The lipids in ethanol and the nucleic acid cargo in buffer were combined in a 1:3 volume by volume ratio using a t-junction with dual-syringe pump. The solutions were pushed through the t-junction at a combined flow rate of 20 mL/min (5 mL/minute for the lipid-containing syringe, 15 mL/minute for the mRNA-containing syringe). The mixture was subsequently dialyzed overnight against at least ˜100 volumes of 1× phosphate buffered saline (PBS), pH 7.4 using Spectro/Por™ dialysis membranes (molecular weight cut-off 12 000-14 000 Da). The LNPs were concentrated as required with an Amicon Ultra™ 100 000 MWCO (molecular weight cut-off), regenerated cellulose concentrator.
# After T-mixing, 1× phosphate buffered saline (PBS) or other buffer as indicated, was added to the formulation mixture in increasing ratios of LNP: 1× buffer prior to dialysis and gently mixed, followed by transfer to dialysis in 1×PBS (or other suitable buffer as indicated) followed by processing as usual.
# After the T-mixing (see Materials and Methods above), 1× phosphate buffered saline (PBS) was added to the formulation mixture in increasing volume ratios of LNP: 1× PBS (as indicated in FIGS. 7A-F) prior to dialysis followed by gentle mixing and transfer of the mixture to a dialysis bag in 1×PBS overnight followed by processing as usual. […] Physiochemical characteristics (particle size, PDI and encapsulation %) were measured after dialysis and after dialysis and concentration of the LNPs to >0.25 mg/mL and overnight storage.
# [2] = Encapsulation efficiency (RiboGreen), particle size and PDI (Zetasizer Nano ZS) of LNPs; assay type: physicochemical; details: PEG-less mRNA-LNP, unmodified method, 27.4/50/22.6 (FIG. 6)
# Description: Encapsulation efficiency was calculated by determining unencapsulated mRNA content by measuring the fluorescence upon the addition of RiboGreen™ to the mRNA-LNP (Fi) and comparing this value to the total mRNA content that is obtained upon lysis of the LNP by 2% Triton X-100 (Ft): % encapsulation=(Ft−Fi)/Ft×100.
# The particle size and polydispersity index (PDI) were characterized using a Zetasizer Nano ZS™.
# [3] = buffer-to-LNP ratio as low as 1:1 (v:v)
# [4] = dilution ratios below 1:1 (v:v)
PDI [2],encapsulation efficiency [2],Compound,ability to be formulated in PEG-less mRNA-LNPs [1],behaviour after dialysis and concentration/storage [1],also measured
–,–,"CCCCCCCCCCCCCC(=O)OC[C@H](COP(=O)([O-])OCC[N+](C)(C)C)OC(=O)CCCCCCCCCCCCC [DMPC, dimyristoylphosphatidylcholine]",–,–,"physiochemical characteristics after concentration/storage ([1]; 12/DMPC/cholesterol 27.4/50/22.6, unmodified method (FIG. 13)): deteriorated after concentration/storage; physiochemical characteristics / behaviour upon dialysis ([1]; PEG-less LNP with 12 as ionizable lipid, helper lipid screen, unmodified method (FIG. 13)): less ideal physiochemical characteristics"
–,–,"CCCCCCCC/C=C\CCCCCCCC(=O)OC[C@H](COP(=O)([O-])OCC[N+](C)(C)C)OC(=O)CCCCCCC/C=C\CCCCCCCC [DOPC, dioleoylphosphatidylcholine]",–,–,behaviour in dialysis [1]: agglomerated in dialysis
–,–,"CCCCCCCC/C=C\CCCCCCCC(=O)OC[C@H](COP(=O)(O)OCCN)OC(=O)CCCCCCC/C=C\CCCCCCCC [DOPE, dioleoylphosphatidylethanolamine]",–,–,behaviour in dialysis [1]: agglomerated in dialysis
–,–,"CCCCCCCCCCCCCCCCCC(=O)OC[C@H](COP(=O)([O-])OCC[N+](C)(C)C)OC(=O)CCCCCCCCCCCCCCCCC [DSPC, distearoylphosphatidylcholine]",–,–,"change in physiochemical characteristics after concentration and refrigerated storage ([1]; PEG-less mRNA-LNP 1/structural lipid/cholesterol 27.4/50/22.6, unmodified method (FIGS. 12A, 12B)): no change"
–,–,CCCCCCCCC(=O)OC(CCCCCC(CCCCCC(CSC1CCCCC1)OC(=O)CCCCCCCC)OC(=O)CCCN(C)C)CSC1CCCCC1 (stereo not drawn) [Ionizable lipid 1],capable of being formulated,–,"viability of LNPs, modified method with 25 mM sodium acetate dilution [1]: viable LNPs; physiochemical properties/stability, modified method with 1× PBS dilution after T-mixing [1]: acceptable physiochemical properties"
high,low,CCCCCCCCCC(=O)OC(CCCCC1(CCCCC(CSC2CCCCC2)OC(=O)CCCCCCCCC)OCC(CCN(C)C)O1)CSC1CCCCC1 (stereo not drawn) [Ionizable lipid 12],undesirable physiochemical characteristics,agglomerate after dialysis or were not stable after concentration/storage,"viability of LNPs, modified method with 25 mM sodium acetate dilution [1]: viable PEG-less LNPs; stability, modified method with 1× PBS dilution ([1]; less than 1× volume of 1×PBS (1:0.25, 1:0.5, undiluted)): agglomerated upon dialysis; stability, modified method with 1× PBS dilution ([1]; ratios of at least 1:1 (v:v) addition of 1×PBS): stable after concentration and overnight storage"
high,low,CCCCCCCC(=O)OC(CCCCCC)CSCCCCCC(CCCCCSCC(CCCCCC)OC(=O)CCCCCCC)N(C)CCCCO (stereo not drawn) [Ionizable lipid 15],undesirable physiochemical characteristics,agglomerate after dialysis or were not stable after concentration/storage,"physiochemical characteristics, modified method with 25 mM sodium acetate dilution [1]: ideal physiochemical characteristics; physiochemical properties/stability, modified method with 1× PBS dilution after T-mixing [1]: agglomerated in dialysis; stability, modified method with 25 mM sodium acetate dilution [1, 3]: stable PEG-less lcLNP compositions; stability, modified method with 25 mM sodium acetate dilution [1, 4]: agglomerated in dialysis"
high,low,CCCCCCC(CSCCCCCC(CCCCCSCC(CCCCCC)OC(=O)CCC1CCCCC1)N(C)CCCCO)OC(=O)CCC1CCCCC1 (stereo not drawn) [Ionizable lipid 16],undesirable physiochemical characteristics,agglomerate after dialysis or were not stable after concentration/storage,"stability, modified method with 1× PBS dilution ([1]; 1:2 (v:v) dilution): stable particles which did not agglomerate in dialysis; physiochemical characteristics, modified method with 25 mM sodium acetate dilution [1]: ideal physiochemical characteristics; stability, modified method with 25 mM sodium acetate dilution [1, 3]: stable PEG-less lcLNP compositions; stability, modified method with 25 mM sodium acetate dilution [1, 4]: agglomerated in dialysis"
high,low,CCCCCCCCC(CCCCCC)C(=O)OCCCCCC(CCCCCSCC(CCCCCC)OC(=O)CCC1CCCCC1)N(C)CCCCO (stereo not drawn) [Ionizable lipid 17],undesirable physiochemical characteristics,agglomerate after dialysis or were not stable after concentration/storage,–
–,–,CCCCCCCCCCCOC(=O)CCCCCN(CCO)CCCCCCCC(=O)OC(CCCCCCCC)CCCCCCCC [Ionizable lipid 21],capable of being formulated,–,–
